Experimental data as given in article PMC9571063 (Molecules, 2022).

Experiments:
Test in all cases: KINOMEscan
Format in all cases: binding
Conditions in all cases: read-out: Percent Control
PKN2 = target: T1, PKN2 (Homo sapiens, UniProt Q16513)
T1 construct: purchased Eurofins DiscoverX KINOMEscan (scanMAX 468)

MERTK = target: T2, MERTK (Homo sapiens, UniProt Q12866)
T2 construct: purchased Eurofins DiscoverX KINOMEscan (scanMAX 468)

p38-gamma = target: T3, p38-gamma (Homo sapiens, UniProt P53778)
T3 construct: purchased Eurofins DiscoverX KINOMEscan (scanMAX 468)

ASK1 = target: T4, ASK1 (Homo sapiens, UniProt Q99683)
T4 construct: purchased Eurofins DiscoverX KINOMEscan (scanMAX 468)

MAP3K3 = target: T5, MAP3K3 (Homo sapiens, UniProt Q99759)
T5 construct: purchased Eurofins DiscoverX KINOMEscan (scanMAX 468)

PRKG2 = target: T6, PRKG2 (Homo sapiens, UniProt Q13237)
T6 construct: purchased Eurofins DiscoverX KINOMEscan (scanMAX 468)

MEK2 = target: T7, MEK2 (Homo sapiens, UniProt P36507)
T7 construct: purchased Eurofins DiscoverX KINOMEscan (scanMAX 468)

CSF1R = target: T8, CSF1R (Homo sapiens, UniProt P07333)
T8 construct: purchased Eurofins DiscoverX KINOMEscan (scanMAX 468)

MYO3B = target: T9, MYO3B (Homo sapiens, UniProt Q8WXR4)
T9 construct: purchased Eurofins DiscoverX KINOMEscan (scanMAX 468)

FGFR1 = target: T10, FGFR1 (Homo sapiens, UniProt P11362)
T10 construct: purchased Eurofins DiscoverX KINOMEscan (scanMAX 468)

[1] = target: T11, ABL1(H396P)-phosphorylated (Homo sapiens, UniProt P00519, H396P)
T11 construct: purchased Eurofins DiscoverX KINOMEscan (scanMAX 468)

LATS1 = target: T12, LATS1 (Homo sapiens, UniProt O95835)
T12 construct: purchased Eurofins DiscoverX KINOMEscan (scanMAX 468)

ERBB2 = target: T13, ERBB2 (Homo sapiens, UniProt P04626)
T13 construct: purchased Eurofins DiscoverX KINOMEscan (scanMAX 468)

MAP3K15 = target: T14, MAP3K15 (Homo sapiens, UniProt Q6ZN16)
T14 construct: purchased Eurofins DiscoverX KINOMEscan (scanMAX 468)

IKK-beta = target: T15, IKK-beta (Homo sapiens, UniProt O14920)
T15 construct: purchased Eurofins DiscoverX KINOMEscan (scanMAX 468)

p38-beta = target: T16, p38-beta (Homo sapiens, UniProt Q15759)
T16 construct: purchased Eurofins DiscoverX KINOMEscan (scanMAX 468)

PIK3CB = target: T17, PIK3CB (Homo sapiens, UniProt P42338)
T17 construct: purchased Eurofins DiscoverX KINOMEscan (scanMAX 468)

MARK3 = target: T18, MARK3 (Homo sapiens, UniProt P27448)
T18 construct: purchased Eurofins DiscoverX KINOMEscan (scanMAX 468)

PDGFRB = target: T19, PDGFRB (Homo sapiens, UniProt P09619)
T19 construct: purchased Eurofins DiscoverX KINOMEscan (scanMAX 468)

CSNK1D = target: T20, CSNK1D (Homo sapiens, UniProt P48730)
T20 construct: purchased Eurofins DiscoverX KINOMEscan (scanMAX 468)

EIF2AK1 = target: T21, EIF2AK1 (Homo sapiens, UniProt Q9BQI3)
T21 construct: purchased Eurofins DiscoverX KINOMEscan (scanMAX 468)

YES = target: T22, YES (Homo sapiens, UniProt P07947)
T22 construct: purchased Eurofins (KINOMEscan, DiscoverX)

TAOK1 = target: T23, TAOK1 (Homo sapiens, UniProt Q7L7X3)
T23 construct: purchased Eurofins DiscoverX KINOMEscan (scanMAX 468)

ADCK4 = target: T24, ADCK4 (Homo sapiens, UniProt Q96D53)
T24 construct: purchased Eurofins DiscoverX KINOMEscan (scanMAX 468)

IRAK1 = target: T25, IRAK1 (Homo sapiens, UniProt P51617)
T25 construct: purchased Eurofins DiscoverX KINOMEscan (scanMAX 468)

ALK = target: T26, ALK (Homo sapiens, UniProt Q9UM73)
T26 construct: purchased Eurofins DiscoverX KINOMEscan (scanMAX 468)

TRKB = target: T27, TRKB (Homo sapiens, UniProt Q16620)
T27 construct: purchased Eurofins DiscoverX KINOMEscan (scanMAX 468)

AURKC = target: T28, AURKC (Homo sapiens, UniProt Q9UQB9)
T28 construct: purchased Eurofins DiscoverX KINOMEscan (scanMAX 468)

MUSK = target: T29, MUSK (Homo sapiens, UniProt O15146)
T29 construct: purchased Eurofins DiscoverX KINOMEscan (scanMAX 468)

CSNK1A1L = target: T30, CSNK1A1L (Homo sapiens, UniProt Q8N752)
T30 construct: purchased Eurofins DiscoverX KINOMEscan (scanMAX 468)

CDC2L2 = target: T31, CDC2L2 (Homo sapiens, UniProt Q9UQ88)
T31 construct: purchased Eurofins DiscoverX KINOMEscan (scanMAX 468)

MKNK2 = target: T32, MKNK2 (Homo sapiens, UniProt Q9HBH9)
T32 construct: purchased Eurofins DiscoverX KINOMEscan (scanMAX 468)

CAMK1B = target: T33, CAMK1B (Homo sapiens, UniProt Q6P2M8)
T33 construct: purchased Eurofins DiscoverX KINOMEscan (scanMAX 468)

NEK10 = target: T34, NEK10 (Homo sapiens, UniProt Q6ZWH5)
T34 construct: purchased Eurofins DiscoverX KINOMEscan (scanMAX 468)

PIK3CG = target: T35, PIK3CG (Homo sapiens, UniProt P48736)
T35 construct: purchased Eurofins DiscoverX KINOMEscan (scanMAX 468)

PAK1 = target: T36, PAK1 (Homo sapiens, UniProt Q13153)
T36 construct: purchased Eurofins DiscoverX KINOMEscan (scanMAX 468)

WNK2 = target: T37, WNK2 (Homo sapiens, UniProt Q9Y3S1)
T37 construct: purchased Eurofins DiscoverX KINOMEscan (scanMAX 468)

EGFR(G719S) = target: T38, EGFR(G719S) (Homo sapiens, UniProt P00533, G719S)
T38 construct: purchased Eurofins DiscoverX KINOMEscan (scanMAX 468)

ABL2 = target: T39, ABL2 (Homo sapiens, UniProt P42684)
T39 construct: purchased Eurofins DiscoverX KINOMEscan (scanMAX 468)

PKAC-alpha = target: T40, PKAC-alpha (Homo sapiens, UniProt P17612)
T40 construct: purchased Eurofins DiscoverX KINOMEscan (scanMAX 468)

CAMK2B = target: T41, CAMK2B (Homo sapiens, UniProt Q13554)
T41 construct: purchased Eurofins DiscoverX KINOMEscan (scanMAX 468)

ULK3 = target: T42, ULK3 (Homo sapiens, UniProt Q6PHR2)
T42 construct: purchased Eurofins DiscoverX KINOMEscan (scanMAX 468)

PRKD1 = target: T43, PRKD1 (Homo sapiens, UniProt Q15139)
T43 construct: purchased Eurofins DiscoverX KINOMEscan (scanMAX 468)

WNK3 = target: T44, WNK3 (Homo sapiens, UniProt Q9BYP7)
T44 construct: purchased Eurofins DiscoverX KINOMEscan (scanMAX 468)

DLK = target: T45, DLK (Homo sapiens, UniProt Q12852)
T45 construct: purchased Eurofins DiscoverX KINOMEscan (scanMAX 468)

T18 sequence (P27448 whole entry): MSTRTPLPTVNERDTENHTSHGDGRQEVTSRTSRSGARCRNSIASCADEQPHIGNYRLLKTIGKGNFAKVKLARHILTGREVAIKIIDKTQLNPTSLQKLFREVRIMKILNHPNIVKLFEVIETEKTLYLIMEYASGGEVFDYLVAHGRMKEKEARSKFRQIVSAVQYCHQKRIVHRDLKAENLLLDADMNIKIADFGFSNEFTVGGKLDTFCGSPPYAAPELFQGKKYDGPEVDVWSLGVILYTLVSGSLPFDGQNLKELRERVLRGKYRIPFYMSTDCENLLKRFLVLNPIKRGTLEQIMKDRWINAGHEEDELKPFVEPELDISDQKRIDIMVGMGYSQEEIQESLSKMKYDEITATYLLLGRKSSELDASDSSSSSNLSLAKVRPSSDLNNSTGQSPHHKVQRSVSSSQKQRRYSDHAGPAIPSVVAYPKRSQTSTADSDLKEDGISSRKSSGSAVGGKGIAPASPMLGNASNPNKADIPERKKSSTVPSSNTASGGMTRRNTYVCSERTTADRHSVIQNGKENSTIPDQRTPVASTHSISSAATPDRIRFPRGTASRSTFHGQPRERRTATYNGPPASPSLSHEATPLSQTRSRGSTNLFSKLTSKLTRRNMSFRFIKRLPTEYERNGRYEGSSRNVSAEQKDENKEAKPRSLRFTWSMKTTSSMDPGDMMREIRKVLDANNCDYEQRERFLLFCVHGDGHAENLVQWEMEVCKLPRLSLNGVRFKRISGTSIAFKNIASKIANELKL
T20 sequence (P48730 whole entry): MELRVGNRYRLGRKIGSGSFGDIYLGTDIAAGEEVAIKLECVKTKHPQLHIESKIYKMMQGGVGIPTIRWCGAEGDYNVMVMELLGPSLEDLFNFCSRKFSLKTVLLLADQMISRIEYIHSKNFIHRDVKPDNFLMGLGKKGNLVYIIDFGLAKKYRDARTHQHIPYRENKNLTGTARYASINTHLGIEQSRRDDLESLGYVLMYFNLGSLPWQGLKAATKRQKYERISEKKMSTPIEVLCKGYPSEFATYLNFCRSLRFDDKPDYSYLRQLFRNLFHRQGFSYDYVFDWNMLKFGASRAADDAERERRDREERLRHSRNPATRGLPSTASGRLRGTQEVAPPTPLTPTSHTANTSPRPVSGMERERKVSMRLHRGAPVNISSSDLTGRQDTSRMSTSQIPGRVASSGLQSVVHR
T4 sequence (Q99683 whole entry): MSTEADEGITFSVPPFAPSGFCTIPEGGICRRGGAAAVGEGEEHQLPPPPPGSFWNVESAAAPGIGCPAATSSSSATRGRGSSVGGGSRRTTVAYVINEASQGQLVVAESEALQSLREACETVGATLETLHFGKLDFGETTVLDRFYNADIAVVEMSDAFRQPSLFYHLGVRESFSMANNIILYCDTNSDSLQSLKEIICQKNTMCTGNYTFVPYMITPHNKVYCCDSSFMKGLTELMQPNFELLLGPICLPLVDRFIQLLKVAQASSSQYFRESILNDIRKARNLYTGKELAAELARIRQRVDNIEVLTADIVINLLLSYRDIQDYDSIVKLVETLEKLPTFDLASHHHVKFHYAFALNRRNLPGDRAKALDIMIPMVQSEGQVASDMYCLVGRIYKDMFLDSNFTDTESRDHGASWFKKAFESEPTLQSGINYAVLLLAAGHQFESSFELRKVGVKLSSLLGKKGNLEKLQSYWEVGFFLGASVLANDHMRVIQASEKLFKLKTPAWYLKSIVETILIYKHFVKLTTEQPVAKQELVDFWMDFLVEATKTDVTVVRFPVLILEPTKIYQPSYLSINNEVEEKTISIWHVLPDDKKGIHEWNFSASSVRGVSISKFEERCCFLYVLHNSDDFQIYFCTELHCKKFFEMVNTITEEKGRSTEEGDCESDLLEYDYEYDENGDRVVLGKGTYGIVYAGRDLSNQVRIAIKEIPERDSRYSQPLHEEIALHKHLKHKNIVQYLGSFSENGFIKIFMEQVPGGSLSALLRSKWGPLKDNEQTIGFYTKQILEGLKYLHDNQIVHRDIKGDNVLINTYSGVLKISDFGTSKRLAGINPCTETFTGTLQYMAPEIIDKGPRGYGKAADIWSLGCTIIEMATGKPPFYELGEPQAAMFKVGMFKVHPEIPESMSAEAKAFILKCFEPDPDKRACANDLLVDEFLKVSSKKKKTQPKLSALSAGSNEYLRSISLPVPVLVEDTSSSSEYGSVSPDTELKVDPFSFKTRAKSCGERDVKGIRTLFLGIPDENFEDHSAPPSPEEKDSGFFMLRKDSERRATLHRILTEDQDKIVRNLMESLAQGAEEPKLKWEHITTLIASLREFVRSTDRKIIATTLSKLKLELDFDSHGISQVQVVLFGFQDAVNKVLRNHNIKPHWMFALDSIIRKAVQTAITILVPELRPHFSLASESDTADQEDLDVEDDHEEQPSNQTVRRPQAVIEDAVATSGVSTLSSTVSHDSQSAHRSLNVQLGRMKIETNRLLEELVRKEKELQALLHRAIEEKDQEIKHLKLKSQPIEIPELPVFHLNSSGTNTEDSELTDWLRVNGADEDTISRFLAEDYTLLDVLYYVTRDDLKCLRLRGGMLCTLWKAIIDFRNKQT
T33 sequence (Q6P2M8 whole entry): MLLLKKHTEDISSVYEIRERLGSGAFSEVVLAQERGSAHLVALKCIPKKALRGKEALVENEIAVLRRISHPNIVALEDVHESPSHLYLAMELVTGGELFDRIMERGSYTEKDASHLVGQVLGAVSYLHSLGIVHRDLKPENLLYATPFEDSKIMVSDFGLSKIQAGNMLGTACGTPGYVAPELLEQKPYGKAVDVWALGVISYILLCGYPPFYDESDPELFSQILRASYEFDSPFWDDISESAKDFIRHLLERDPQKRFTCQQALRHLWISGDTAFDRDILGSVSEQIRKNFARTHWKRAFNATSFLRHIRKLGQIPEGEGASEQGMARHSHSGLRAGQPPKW
T27 sequence (Q16620 32-822): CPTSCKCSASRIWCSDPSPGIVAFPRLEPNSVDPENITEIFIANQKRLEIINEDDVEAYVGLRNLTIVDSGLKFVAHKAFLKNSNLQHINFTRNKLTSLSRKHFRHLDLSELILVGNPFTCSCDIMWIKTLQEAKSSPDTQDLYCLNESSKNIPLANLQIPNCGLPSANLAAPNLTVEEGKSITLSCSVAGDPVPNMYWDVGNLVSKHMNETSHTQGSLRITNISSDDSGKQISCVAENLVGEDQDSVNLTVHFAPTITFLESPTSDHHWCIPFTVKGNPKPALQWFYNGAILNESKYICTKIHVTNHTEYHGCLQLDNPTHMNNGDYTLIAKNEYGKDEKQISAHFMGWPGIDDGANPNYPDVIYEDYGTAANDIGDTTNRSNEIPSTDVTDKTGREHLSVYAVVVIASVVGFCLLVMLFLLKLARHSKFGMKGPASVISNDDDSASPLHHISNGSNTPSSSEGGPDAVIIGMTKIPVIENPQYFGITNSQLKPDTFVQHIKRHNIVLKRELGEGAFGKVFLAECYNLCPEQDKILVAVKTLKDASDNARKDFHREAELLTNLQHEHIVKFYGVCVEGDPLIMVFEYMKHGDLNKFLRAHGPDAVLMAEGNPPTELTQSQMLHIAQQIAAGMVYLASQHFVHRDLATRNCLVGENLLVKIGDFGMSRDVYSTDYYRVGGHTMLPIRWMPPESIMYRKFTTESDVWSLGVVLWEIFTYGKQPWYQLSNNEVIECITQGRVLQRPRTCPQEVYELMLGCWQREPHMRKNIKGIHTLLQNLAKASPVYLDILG
T7 sequence (P36507 whole entry): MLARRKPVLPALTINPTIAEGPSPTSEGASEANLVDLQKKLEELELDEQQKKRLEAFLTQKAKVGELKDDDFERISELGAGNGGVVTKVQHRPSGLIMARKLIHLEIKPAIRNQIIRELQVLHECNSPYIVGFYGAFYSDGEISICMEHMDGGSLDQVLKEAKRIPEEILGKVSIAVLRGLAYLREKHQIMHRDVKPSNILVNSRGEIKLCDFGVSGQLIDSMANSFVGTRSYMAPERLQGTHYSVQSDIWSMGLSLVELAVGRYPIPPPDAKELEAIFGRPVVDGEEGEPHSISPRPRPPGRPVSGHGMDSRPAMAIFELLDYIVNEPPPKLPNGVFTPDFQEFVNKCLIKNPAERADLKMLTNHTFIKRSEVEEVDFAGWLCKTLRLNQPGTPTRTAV
T28 sequence (Q9UQB9 whole entry): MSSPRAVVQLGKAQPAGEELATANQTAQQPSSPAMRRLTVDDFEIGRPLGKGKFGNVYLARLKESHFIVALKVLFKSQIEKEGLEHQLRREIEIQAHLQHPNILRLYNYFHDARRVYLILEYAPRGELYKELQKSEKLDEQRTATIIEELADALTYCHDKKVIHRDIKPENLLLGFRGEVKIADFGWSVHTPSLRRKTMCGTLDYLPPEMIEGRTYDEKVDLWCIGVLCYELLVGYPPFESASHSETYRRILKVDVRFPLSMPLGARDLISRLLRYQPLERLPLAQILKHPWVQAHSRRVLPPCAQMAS
T36 sequence (Q13153 whole entry): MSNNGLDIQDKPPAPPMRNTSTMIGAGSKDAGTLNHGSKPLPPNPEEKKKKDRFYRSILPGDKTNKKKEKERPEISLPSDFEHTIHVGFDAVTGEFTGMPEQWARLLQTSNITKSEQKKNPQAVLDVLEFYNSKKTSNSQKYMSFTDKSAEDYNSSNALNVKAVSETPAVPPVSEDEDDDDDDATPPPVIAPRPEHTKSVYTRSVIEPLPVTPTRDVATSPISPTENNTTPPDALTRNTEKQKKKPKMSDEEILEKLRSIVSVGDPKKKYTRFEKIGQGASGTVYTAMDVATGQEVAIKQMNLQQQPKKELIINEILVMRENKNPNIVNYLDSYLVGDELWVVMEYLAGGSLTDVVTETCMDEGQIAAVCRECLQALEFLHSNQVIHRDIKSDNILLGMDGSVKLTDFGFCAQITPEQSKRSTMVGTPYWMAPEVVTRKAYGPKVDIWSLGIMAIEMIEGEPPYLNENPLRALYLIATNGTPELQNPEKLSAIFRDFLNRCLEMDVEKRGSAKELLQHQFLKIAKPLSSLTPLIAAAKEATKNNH

Cc1ccc(-n2cc(COc3cccc4cnc(Nc5cccc(Cl)c5)nc34)nn2)c([N+](=O)[O-])c1 [DB18]
remaining binding at 1 µM (PKN2): 100% | remaining binding at 1 µM (MERTK): 100% | remaining binding at 1 µM (p38-gamma): 100% | remaining binding at 1 µM (ASK1): 100% | remaining binding at 1 µM (MAP3K3): 99% | remaining binding at 1 µM (PRKG2): 100% | remaining binding at 1 µM (MEK2): 89% | remaining binding at 1 µM (CSF1R): 100% | remaining binding at 1 µM (MYO3B): 84% | remaining binding at 1 µM (FGFR1): 100% | remaining binding at 1 µM [1]: 98% | remaining binding at 1 µM (LATS1): 99% | remaining binding at 1 µM (ERBB2): 57% | remaining binding at 1 µM (MAP3K15): 93% | remaining binding at 1 µM (IKK-beta): 100% | remaining binding at 1 µM (p38-beta): 100% | remaining binding at 1 µM (PIK3CB): 100% | remaining binding at 1 µM (MARK3): 100% | remaining binding at 1 µM (PDGFRB): 100% | remaining binding at 1 µM (CSNK1D): 100% | remaining binding at 1 µM (EIF2AK1): 100% | remaining binding at 1 µM (YES): 100% | remaining binding at 1 µM (TAOK1): 100% | remaining binding at 1 µM (ADCK4): 100% | remaining binding at 1 µM (IRAK1): 100% | remaining binding at 1 µM (ALK): 100% | remaining binding at 1 µM (TRKB): 86% | remaining binding at 1 µM (AURKC): 100% | remaining binding at 1 µM (MUSK): 100% | remaining binding at 1 µM (CSNK1A1L): 100% | remaining binding at 1 µM (CDC2L2): 100% | remaining binding at 1 µM (MKNK2): 100% | remaining binding at 1 µM (CAMK1B): 86% | remaining binding at 1 µM (NEK10): 100% | remaining binding at 1 µM (PIK3CG): 62% | remaining binding at 1 µM (PAK1): 100% | remaining binding at 1 µM (WNK2): 67% | remaining binding at 1 µM (EGFR(G719S)): 100% | remaining binding at 1 µM (ABL2): 100% | remaining binding at 1 µM (PKAC-alpha): 100% | remaining binding at 1 µM (CAMK2B): 100% | remaining binding at 1 µM (ULK3): 100% | remaining binding at 1 µM (PRKD1): 100% | remaining binding at 1 µM (WNK3): 100% | remaining binding at 1 µM (DLK): 100%
